Measurements taken from the supplement of paper PMC10307832.

Legend:
Experiment in all cases: relative viability (nuclei count vs DMSO), 5 days (fraction); higher = more cells survive
Dactolisib + Pictilisib = compound: Cn1c(=O)n(-c2ccc(C(C)(C)C#N)cc2)c2c3cc(-c4cnc5ccccc5c4)ccc3ncc21 [Dactolisib] + CS(=O)(=O)N1CCN(Cc2cc3nc(-c4cccc5[nH]ncc45)nc(N4CCOCC4)c3s2)CC1 [Pictilisib] (partner 1 µM)
Procedure, shortened: (§1)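 Relative viability was taken as the ratio of nuclei in treated wells to nuclei in vehicle wells. Lung cancer cell lines in 1536-well plates received compounds by pin tool one day after seeding, either one drug alone or a fixed anchor-drug dose plus five library-drug doses (not always all listed) in √10 steps. Nuclei were counted on 4× images after 5 days of treatment, and values are medians of duplicate plates.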

AZ505 + Palbociclib = compound: C1CCC(CC1)N(CCNCCC2=C3C(=C(C=C2)O)NC(=O)CO3)C(=O)CCNCCC4=CC(=C(C=C4)Cl)Cl [AZ505] + CC(=O)c1c(C)c2cnc(Nc3ccc(N4CCNCC4)cn3)nc2n(C2CCCC2)c1=O [Palbociclib] (partner 0.5 µM)
Procedure, shortened: as §1

Dactolisib + Olaparib = compound: Cn1c(=O)n(-c2ccc(C(C)(C)C#N)cc2)c2c3cc(-c4cnc5ccccc5c4)ccc3ncc21 [Dactolisib] + O=C(c1cc(Cc2n[nH]c(=O)c3ccccc23)ccc1F)N1CCN(C(=O)C2CC2)CC1 [Olaparib] (partner 8 µM)
Procedure, shortened: as §1

Dactolisib + Palbociclib = compound: Cn1c(=O)n(-c2ccc(C(C)(C)C#N)cc2)c2c3cc(-c4cnc5ccccc5c4)ccc3ncc21 [Dactolisib] + CC(=O)c1c(C)c2cnc(Nc3ccc(N4CCNCC4)cn3)nc2n(C2CCCC2)c1=O [Palbociclib] (partner 0.5 µM)
Procedure, shortened: as §1

Cell Line	relative viability (Dactolisib + Pictilisib; first compound 0.002 µM)	relative viability (Dactolisib + Pictilisib; first compound 0.006325 µM)	relative viability (Dactolisib + Pictilisib; first compound 0.02 µM)	relative viability (Dactolisib + Pictilisib; first compound 0.06325 µM)	relative viability (Dactolisib + Pictilisib; first compound 0.2 µM)	relative viability (AZ505 + Palbociclib; first compound 0.08 µM)	relative viability (AZ505 + Palbociclib; first compound 0.253 µM)	relative viability (AZ505 + Palbociclib; first compound 0.8 µM)	relative viability (AZ505 + Palbociclib; first compound 2.53 µM)	relative viability (AZ505 + Palbociclib; first compound 8 µM)	relative viability (Dactolisib + Olaparib; first compound 0.002 µM)	relative viability (Dactolisib + Olaparib; first compound 0.006325 µM)	relative viability (Dactolisib + Olaparib; first compound 0.02 µM)	relative viability (Dactolisib + Olaparib; first compound 0.06325 µM)	relative viability (Dactolisib + Olaparib; first compound 0.2 µM)	relative viability (Dactolisib + Palbociclib; first compound 0.002 µM)	relative viability (Dactolisib + Palbociclib; first compound 0.006325 µM)	relative viability (Dactolisib + Palbociclib; first compound 0.02 µM)	relative viability (Dactolisib + Palbociclib; first compound 0.06325 µM)	relative viability (Dactolisib + Palbociclib; first compound 0.2 µM)
LXF-289	0.9	0.851	0.749	0.673	0.613	0.552	0.608	0.568	0.594	0.588	1.21	0.986	1	0.973	0.695	0.622	0.591	0.585	0.522	0.381
NCI-H23	0.503	0.529	0.37	0.252	0.23	0.465	0.522	0.505	0.533	0.485	0.266	0.254	0.239	0.223	0.161	0.464	0.383	0.37	0.189	0.191
NCI-H322M	0.504	0.564	0.34	0.448	0.461	0.53		0.473	0.489	0.503	0.752	0.789	0.774	0.719	0.674	0.487	0.476	0.415	0.387	0.415
NCI-H358	0.345	0.302	0.337	0.196	0.215	0.122	0.156	0.153	0.139	0.151	0.675	0.557	0.552	0.478	0.169	0.141	0.146	0.134	0.112	0.096
NCI-H441	0.758	0.464	0.412	0.285	0.233	0.228	0.233	0.258	0.231	0.223	0.784	0.571	0.597	0.248	0.25	0.27	0.206	0.194	0.176	0.133
NCI-H460	0.423	0.355	0.289	0.302	0.306	0.183	0.162	0.147	0.187	0.167	0.256	0.45	0.423	0.341	0.335	0.0965	0.111	0.13	0.0706	0.0375
NCI-H520	0.299	0.235	0.234	0.195	0.184	0.229	0.235	0.201	0.263	0.237	0.328	0.308	0.284	0.144	0.128	0.206	0.178	0.163	0.153	0.117
NCI-H647	0.448	0.407	0.409	0.227	0.151	0.362	0.461	0.387	0.429	0.432	0.54	0.349	0.315	0.129	0.0846	0.398	0.294	0.196	0.0842	0.0654
NCI-H650	0.86	0.771	0.704	0.558	0.451	0.279	0.377	0.322	0.395	0.309	0.552	0.378	0.437	0.312	0.195	0.387	0.33	0.334	0.279	0.204
NCI-H661	0.468	0.406	0.389	0.377	0.251	0.404	0.433	0.402	0.422	0.372	0.706	0.656	0.771	0.504	0.434	0.415	0.379	0.368	0.342	0.332
NCI-H727	0.275	0.339	0.396	0.212	0.227	0.598	0.687	0.625	0.552	0.674		0.79	0.874	0.699	0.629		0.693	0.658	0.581	0.513
NCI-H838	0.351	0.302	0.239	0.204	0.218	0.236	0.191	0.195	0.216	0.195	0.924	0.657	0.43	0.273	0.208	0.2	0.186	0.151	0.142	0.117
NCI-H1355	0.505	0.401	0.43	0.32	0.241	0.369	0.398	0.396	0.367	0.374	0.831	0.684	0.644	0.443	0.27	0.406	0.368	0.352	0.255	0.174
NCI-H1395	0.64	0.611	0.569	0.525	0.446	0.593		0.638	0.661	0.686	0.439	0.434	0.428	0.387	0.401	0.558	0.589	0.556	0.452	0.419
NCI-H1437	0.452	0.421	0.371	0.268	0.165	0.309	0.33	0.314	0.335	0.301	0.686	0.6	0.629	0.64	0.543	0.321	0.328	0.369	0.274	0.215
NCI-H1650	0.672	0.48	0.524	0.321	0.323	0.34	0.412	0.278	0.35	0.317	1.03	0.704	0.722	0.498	0.568	0.357	0.348	0.298	0.191	0.142
